Here are results for one molecule from patent publication US20100196462A1, “Method for Manufacturing a Pharmaceutical Form of Oseltamivir Phosphate” (priority 2006, published 2010).

The data set in a line: Density of the oseltamivir phosphate active ingredient before densification (pharmacotechnical tests). The class given is physicochemical. The conditions noted are these: active ingredient as received, without densification.

On to `CCOC(=O)C1=C[C@@H](OC(CC)CC)[C@H](NC(C)=O)[C@@H](N)C1` [oseltamivir phosphate], for which the density result is “approximately 0.1 g/cm^3”.
